Where a name gives a salt, the structure may show the parent alone. Values belong to the compound of their own block, whether it stands above or below them.
How the values were obtained:
[1] = test system: Hyperphosphorylated three repeat tau protein; experiment: In vivo detection in TBI mouse model, fluorescent imaging of retinas; conditions: intravenous administration, removed retinas, fluorescence microscope; wild type mice of comparable age: no immunostaining
Procedure: Model mice having a target protein, for example, an amyloid beta protein, or a phosphorylated tau protein, or an accumulated mass thereof, are administered compound 1, 2, or 3 intravenously. Retinas of the mice are removed and are mounted on slides. The retinas are washed with PBS 2 times for 5 minutes. A solution of 98% formic acid is added-5 minutes for antigen retrieval. The sampled are washed with distilled water-2 times for 5 minutes. The samples are equilibrated in 1×PBS for 15 minutes, then blocked with 10% goat/donkey serum in 1×PBST (depending on antibodies) for 1 hour. Samples are covered in foil, and washed with 1×PBS 3 times for 5 minutes each. Samples are stained with DAPI (300 nM or 100 ng/ml) in dark for 10 minutes, then tissues are washed 3×10 minutes with PBS. Antifade DAKO mounting medium is added, and coverslip and kept under foil until imaging.
Fluorescent imaging study of the samples is conducted on a Leica DMI 4000B microscope (Leica, Germany) equipped with a TCS SPE camera and Leica 10, 20 and 40× objectives. The following lasers are used to visualize fluorescent probes pertaining to DAPI (blue, nuclear stain), compound 1, 2, or 3 (green) and hyperphosphorylated tau (red): 408, 488 and 568 nm. Z-stacked images are taken at 40× at 0.5 μm increments to visualize the entire thickness of the tissue.

Aβ = Aβ (Homo sapiens, UniProt P05067); experiment: Fluorescence emission / binding of compound 1 to aggregated amyloidogenic protein (Table A); conditions: 4 μM compound 1, 5 μM aggregated protein, 1×PBS pH 7.4
Procedure: (§1) An in vitro study was carried out to characterize the fluorescent properties of compound 1 and its binding to amyloidogenic protein aggregates (e.g., Aβ, aSyn, TTR, and TDP43).
(§2) Compound 1 (4 μM) was prepared with or without 5 μM aggregated amyloidogenic protein in 1× phosphate-buffered saline (PBS). The emission spectra of compound 1 for each sample were collected according to the following protocol and the corresponding fold increases (compound 1+amyloid aggregate/compound 1) were calculated.
(§3) The following protocol was adopted in this study: • 1. Turn on the fluorimeter and let warm up for-30 minutes • 2. Allow aggregated amyloid protein (100 μM) solution to warm to room temperature • 3. Allow the compound 1 to warm to room temperature • 4. Prepare 1×PBS, pH 7.4. • 5. Prepare blank solution of DMSO/PBS (2.42 μl DMSO in 147.6 μl PBS, pH 7.4) • 6. Prepare a 250 μM solution of compound 1 in DMSO. Keep samples in the dark at room temperature. • 7. Prepare a 4 μM compound 1 solution with and without 5 μM aggregated amyloid protein • 8. Measure the emission scan of compound 1+aggregated amyloid protein solution using 1) 450 nm and 2) 488 nm as the excitation wavelength. Record the emission sweep from 450 nm-750 nm. Determine Amax from these spectra • 9. Repeat step 8 for 4 μM compound 1 without amyloid protein • 10. Export the data and plot relative fluorescence intensity (RFI) versus wavelength for emission spectra

TDP43 = TDP43 (Homo sapiens, UniProt Q13148); experiment: as above; conditions: 4 μM compound 1, 5 μM aggregated protein, 1×PBS pH 7.4
Procedure: as §1, §2, §3

TTR = TTR (Homo sapiens, UniProt P02766); experiment: as above; conditions: 4 μM compound 1, 5 μM aggregated protein, 1×PBS pH 7.4
Procedure: as §1, §2, §3

aSyn = aSyn (Homo sapiens, UniProt P37840); experiment: as above; conditions: 4 μM compound 1, 5 μM aggregated protein, 1×PBS pH 7.4
Procedure: as §1, §2, §3

[2] = test system: amyloidogenic protein aggregates (e.g., Aβ, aSyn, TTR, and TDP43); experiment: In vitro characterization: binding to amyloidogenic protein aggregates; conditions: 4 μM compound 1, 5 μM aggregated protein; excitation 450 and 488 nm
Procedure: as §1, §2
as §3, with “Repeat step 8 for 4 μM compound 1 without amyloid protein • 10.” left out

[3] = test system: aggregates in ALS ex vivo retina cadaver tissue; experiment: Ex vivo human cadaver imaging study, flat mounted ALS retinas stained with compound 1; conditions: 60 μM compound 1, 30 minutes at room temperature, confocal microscope
Procedure: An ex vivo human cadaver imaging study was carried out using compound 1. Flat mounted retinas extracted from ALS (amyotrophic lateral sclerosis) human cadavers were stained with compound 1 (60 μM) and images were collected.
The following staining protocol was adopted in this study:
• (i) Fix tissue in room temperature 4% PFA for 20 minutes, wash, permeabilize, and block (5% goat serum in PBST for 1 hour) • (ii) Incubate with 60 μM compound 1 in 1×PBS for 30 minutes at room temperature • (iii) Wash with PBS (3 times for 5 minutes) • (iv) Mount tissue using antifade Prolong Glass mounting media. • (v) Image with confocal microscope • (vi) Add lambda scanning imaging protocol to determine the emission peak.

[4] = test system: amyloid-like deposits in the retina; experiment: In vivo NHP imaging study, fundus autofluorescence (FAF); design: species or system non-human primates (monkeys); conditions: 5.13 mg/kg IV bolus
Procedure: An in vivo imaging study was carried out in non-human primates (NHP).
Compound 1 was administered to ketamine xylazine-anesthetized monkeys as a single bolus intravenous dose according to Table B. In-vivo fundus autofluorescence (FAF) images were collected prior to injection and at 2-, 5-, 15-, and 30-minutes post injection.
The compound 1 solution for injection (7 mg/mL compound 1 in 13 mM sodium bicarbonate buffered at pH 4.2) was prepared according to the following steps: • 1. Add 3 g sodium bicarbonate to 100 mL water (0.03 g/ml) • 2. Weigh out 4 g of PEG-400 (d. 1.13 g/mL) into an amber, or light isolated, 20 mL storage container containing a stir bar • 3. Add 200 mg of compound 1-HCl to the PEG-400 • 4. Add 20 mL water and stir until clear (~10 min) • 5. Add dropwise 0.6 ml of 0.03 g/ml sodium bicarbonate solution and stir 10 min (PH ~3.8) • 6. Add dropwise another 0.2 ml of the sodium bicarbonate solution and stir 10 min to adjust pH to 4.2 to provide a clear red solution • 7. Filter through 1 inch 0.22 μm diameter syringe filter to give a red clear solution into a presterilized sealed 20 mL amber glass vial • 8. Test the pH to confirm ~4.2 • 9. Transfer the remaining formulation into a 5 mL presterilized amber glass vial and place into a −20° C. freezer for analytical testing. The vial can be stored for up to 1 hour prior to use. • 10. Inject with a sterile syringe attached to a 0.22-micron PVDF membrane filter and needle. Use within 1 hour.

[5] = FAF images at 2, 5, 15 and 30 minutes post injection

Sequence of TDP43 (Q13148 whole entry): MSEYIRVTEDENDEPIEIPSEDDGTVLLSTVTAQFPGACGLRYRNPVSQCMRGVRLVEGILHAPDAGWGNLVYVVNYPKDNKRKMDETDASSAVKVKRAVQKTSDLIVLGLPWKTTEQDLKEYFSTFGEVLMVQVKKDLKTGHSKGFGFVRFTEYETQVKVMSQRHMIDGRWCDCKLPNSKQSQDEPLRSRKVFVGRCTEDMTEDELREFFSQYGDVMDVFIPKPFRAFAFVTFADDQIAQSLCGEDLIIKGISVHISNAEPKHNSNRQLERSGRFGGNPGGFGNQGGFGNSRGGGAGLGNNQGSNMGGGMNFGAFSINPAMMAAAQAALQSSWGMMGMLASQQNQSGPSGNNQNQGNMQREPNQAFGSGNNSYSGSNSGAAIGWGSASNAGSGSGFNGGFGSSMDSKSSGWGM
Sequence of Aβ (P05067 672-713 limits assumed): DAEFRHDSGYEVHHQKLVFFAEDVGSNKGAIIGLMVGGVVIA

Compound: C[C@H](N)C(=O)OCCOCCOCCNC(=O)/C(C#N)=C/c1ccc2cc(N3CCCCC3)ccc2c1 [Compound 3, (E)-2-(2-(2-(2-cyano-3-(6-(piperidin-1-yl)naphthalen-2-yl)acrylamido)ethoxy)ethoxy)ethyl L-alaninate hydrochloride salt]
detection of hyperphosphorylated three repeat tau in the retina (fluorescent signal) [1]: Hyperphosphorylated three repeat tau protein is detected in the retina, producing a detectable fluorescent signal

Fold (fold increase, compound 1+amyloid aggregate/compound 1) (Aβ; excitation 450 nm): 25.3 fold
λmax (Aβ; excitation 450 nm): 550 nm
Fold (fold increase, compound 1+amyloid aggregate/compound 1) (Aβ; excitation 488 nm): 17.9 fold
λmax (Aβ; excitation 488 nm): 555 nm
Fold (fold increase, compound 1+amyloid aggregate/compound 1) (TDP43; excitation 450 nm): 6.1 fold
λmax (TDP43; excitation 450 nm): 544 nm
Fold (fold increase, compound 1+amyloid aggregate/compound 1) (TDP43; excitation 488 nm): 4.70 fold
λmax (TDP43; excitation 488 nm): 529 nm
Fold (fold increase, compound 1+amyloid aggregate/compound 1) (TTR; excitation 450 nm): 11.5 fold
λmax (TTR; excitation 450 nm): 543 nm
Fold (fold increase, compound 1+amyloid aggregate/compound 1) (TTR; excitation 488 nm): 5.9 fold
λmax (TTR; excitation 488 nm): 549 nm
Fold (fold increase, compound 1+amyloid aggregate/compound 1) (aSyn; excitation 450 nm): 174.1 fold
λmax (aSyn; excitation 450 nm): 530 nm
Fold (fold increase, compound 1+amyloid aggregate/compound 1) (aSyn; excitation 488 nm): 110.8 fold
λmax (aSyn; excitation 488 nm): 538 nm
Compound: N#C/C(=C\c1ccc2cc(N3CCCCC3)ccc2c1)C(=O)NCCOCCOCCOC(=O)CN [Compound 1, (E)-2-(2-(2-(2-cyano-3-(6-(piperidin-1-yl)naphthalen-2-yl)acrylamido)ethoxy)ethoxy)ethyl glycinate hydrochloride salt]
binding to the aggregated amyloidogenic proteins in vitro [2]: successfully bound to the aggregated amyloidogenic proteins in vitro
labeling of aggregates in ALS retina [3]: labeled aggregates in ALS ex vivo retina cadaver tissue
hyperfluorescence in vasculature and retinal tissue following injection [4, 5]: hyperfluorescence was observed within minutes in the vasculature following injection and subsequently in the retinal tissue
labeling of amyloid-like deposits in the retina [4, 5]: labeled amyloid-like deposits in the retina
clearance of signal from the vascular system ([4]; FAF images up to 30 minutes post injection): signal cleared quickly from the vascular system
detection of hyperphosphorylated three repeat tau in the retina (fluorescent signal) [1]: Hyperphosphorylated three repeat tau protein is detected in the retina, producing a detectable fluorescent signal

Compound: CC(C)(C)OC(=O)NCC(=O)OCCOCCOCCNC(=O)/C(C#N)=C/c1ccc2cc(N3CCCCC3)ccc2c1 [Compound 2, (E)-2-(2-(2-(2-cyano-3-(6-(piperidin-1-yl)naphthalen-2-yl)acrylamido)ethoxy)ethoxy)ethyl (tert-butoxycarbonyl)glycinate]
detection of hyperphosphorylated three repeat tau in the retina (fluorescent signal) [1]: Hyperphosphorylated three repeat tau protein is detected in the retina, producing a detectable fluorescent signal

From patent US20260327196A1, “AMINO ACID DERIVATIVES FOR DETECTING NEUROLOGICAL DISORDERS” (Amydis, Inc., priority 2023, published 2026)
